Measured values reported in patent US8901301B2, “Pyrrolo[2,3-]pyridine kinase inhibitors” (Plexxikon Inc., priority 2009, dated 2014).

How the values were obtained:
Kit = Kit (Homo sapiens, UniProt P10721); assay: Biochemical inhibitory activity, other protein kinases: Kit; conditions: for Kinase having IC50 of >1 μM: listing of the kinase means IC50 >1 μM
Kdr = Kdr (Homo sapiens, UniProt P35968); assay: Biochemical inhibitory activity, other protein kinases: Kdr; conditions: for Kinase having IC50 of >1 μM: listing of the kinase means IC50 >1 μM
B-Raf = target: T1, B-Raf (Homo sapiens, UniProt P15056); assay: Raf biochemical kinase assay (biotin-MEK1 phosphorylation), B-Raf; conditions: 100 μM ATP
T1 construct: purchased Upstate Biotechnology
Experimental: Assays for biochemical and cell based activity are known in the art, for example, as described in PCT publication WO 2007/002433, the disclosure of which is hereby incorporated by reference as it relates to such assays. For example, the biochemical activity IC50 values are determined with respect to inhibition of A-Raf kinase activity, B-Raf kinase activity, c-Raf-1 kinase activity, or B-Raf V600E kinase activity, where inhibition of phosphorylation of a peptide substrate is measured as a function of compound concentration. Compounds to be tested are diluted in dimethyl sulfoxide to a concentration of 0.1 mM. These are serially diluted 15 μL into 30 μL of dimethyl sulfoxide seven times in 96 well plates for a total of 8 dilution points, and for each dilution point 1 μL is added to a well of an assay plate. Plates are prepared such that each well in a 384 well plate contains 1 μL of compound in 10 μL volume with 0.1 ng Raf enzyme (i.e. any of A-Raf, B-Raf, c-Raf-1 or B-Raf V600E, Upstate Biotechnology or prepared by methods known to one of skill in the art), 50 mM HEPES, pH 7.0, 50 mM NaCl, 2 mM MgCl2, 1 mM MnCl2, 0.01% Tween-20, 1 mM DTT, and 100 nM biotin-MEK1 as substrate. The reaction is started with addition of 10 μL of 200 μM ATP (i.e. final 100 μM ATP). After incubation of the kinase reaction for 45 minutes at room temperature, 5 μL/well of Stop Solution is added (25 mM Hepes pH 7.5, 100 mM EDTA, 0.01% BSA with donor beads (Streptavidin coated beads, Perkin Elmer), acceptor beads (Protein A coated, Perkin Elmer), and anti phosphor MEK1/2 antibody (CellSignal), each at final concentration 10 μg/mL). The plates are incubated for 3 hours at room temperature and read on Envision reader (Perkin Elmer). Phosphorylation of Mek1 results in binding of the anti-phosphor-MEK1/2 antibody and association of the donor and acceptor beads such that signal correlates with kinase activity. The signal vs. compound concentration is used to determine the IC50.

SW620 cells = assay: Cell growth inhibition (Cell Titer Glo), SW620; assay type: cell-based; conditions: Homo sapiens, SW-620, 72 h; wild-type B-RAF cell line, 3 days
Experimental: (§1) Compounds are assessed in a variety of cell based assays, employing cells with or without B-Raf V600E mutation, for example cell lines with B-Raf V600E mutation (A375 and COLO205), as well as tumorigenic cell lines with wild-type B-RAF (SW620 and SK-MEL-2). Reagent and assay conditions are as follows:
SW620 cells growth medium: • Leibovitz's L-15 medium, 2 mM L-glutamine, 10% fetal bovine serum.
(§2) SK-MEL-2 cells growth medium: • Minimum Eagle essential medium, 2 mM L-glutamine, 1.5 g/L sodium bicarbonate, 0.1 mM non-essential amino acids, 1.0 mM sodium pyruvate, 10% fetal bovine serum. • On day 1, cells are seeded in growth media in 200 μL per well in a 96-well polystyrene tissue culture plate at 2,000 cells per well (A375, COLO205, SK-MEL-2) or 5,000 cells per well for SW620, and incubated at 37° C. and 5% CO2 overnight. • On day 2, compound at 4 mM in dimethyl sulfoxide is serially diluted 1:4 (10 μL with 30 μL dimethyl sulfoxide) seven times for a total of 8 concentration points. For each dilution point a 1 μL aliquot is added to a well containing cells (highest dilution point at 20 μM), with 1 μL of dimethyl sulfoxide as a negative control (each sample at 0.5% dimethyl sulfoxide). The cells are incubated for 3 days at 37° C. in 5% CO2. • On day 5, Cell Titer Glo (Promega) is thawed and added 100 μL to each well and the plate shaken for 1-2 minutes. The plates are incubated for 10 minutes at room temperature, then […] signal is read (e.g. on Safire reader). The measured fluoresence correlates directly with cell number, such that the reading as a function of compound concentration is used to determine the IC50 value.

COLO205 cells = assay: Cell growth inhibition (Cell Titer Glo), COLO205; assay type: cell-based; conditions: Homo sapiens, COLO 205, 72 h; B-Raf V600E cell line, 3 days
Experimental: as §1
COLO205 cells growth medium: • RPMI 1640, 2 mM L-glutamine, 1.5 g/L sodium bicarbonate, 4.5 g/L D-glucose, 10 mM HEPES, 1.0 mM sodium pyruvate, 10% fetal bovine serum.
as §2

CYP3A4(BQ) = target: T2, CYP3A4(BQ) (Homo sapiens, UniProt P08684); assay: CYP inhibition (fluorescent substrate), CYP3A4(BQ); assay type: in vitro ADME; conditions: read-out: Cyp IC50 (μM) 3A4(BQ)
T2 construct: purchased BD Biosciences
Experimental: CYP (Cytochrome P450) enzymes are the major drug metabolizing enzymes present in the liver. The inhibition of CYP enzyme activity (IC50) for each of CYP1A2, CYP2C19, CYP2C9, CYP2D6, CYP3A4(BFC) and CYP3A4(BQ) is determined for compounds, where inhibition of metabolism of a known substrate leads to a decrease in the fluorescence of the metabolized product. The fluorescence of the product is monitored as a function of compound concentration. Compounds are dissolved in dimethyl sulfoxide to a concentration of 100 mM. These are diluted 1 μL into 82 μL of acetonitrile. An 11 μL aliquot of this solution is then added to 204 μL of cofactor mix (1.3% NADPH Regeneration system Solution A, 1.04% NADPH Regeneration system Solution B from BD Biosciences, 5% acetonitrile and 0.05% dimethyl sulfoxide). These are then serially diluted 1:1 (160 μL to 160 μL co-factor mix) for a total of 10 points. A 10 μL aliquot of this final mixture is dispensed into 384 well assay plates and incubated for 10 minutes at 37° C. […] Assay plates are incubated at 37° C. (CYP1A2-15 min; CYP2C9-45 min; CYP2C19, 2D6 and 3A4-30 min) and read in a Tecan Safire 2 plate reader (CYP1A2, 2C19 and 3A4 409 ex/460 em; CYP2C9 and 2D6 409 ex/530 em). The signal versus compound concentration is used to determine the IC50. The enzymes and substrates for this assay are obtained from BD Biosciences.

Btk = Btk (Homo sapiens, UniProt Q06187); assay: Biochemical inhibitory activity, other protein kinases: Btk; conditions: listing of the kinase means IC50 >1 μM
[1] = Relative solubility by turbidity in aqueous buffers; assay type: physicochemical; conditions: pH 1.4 as headed (Simulated Gastric Fluid)
Fms = Fms (Homo sapiens, UniProt P07333); assay: Biochemical inhibitory activity, other protein kinases: Fms; conditions: listing of the kinase means IC50 >1 μM
[2] = listing of the kinase means IC50 <1 μM

Chain of Btk (Q06187 whole entry, species assumed): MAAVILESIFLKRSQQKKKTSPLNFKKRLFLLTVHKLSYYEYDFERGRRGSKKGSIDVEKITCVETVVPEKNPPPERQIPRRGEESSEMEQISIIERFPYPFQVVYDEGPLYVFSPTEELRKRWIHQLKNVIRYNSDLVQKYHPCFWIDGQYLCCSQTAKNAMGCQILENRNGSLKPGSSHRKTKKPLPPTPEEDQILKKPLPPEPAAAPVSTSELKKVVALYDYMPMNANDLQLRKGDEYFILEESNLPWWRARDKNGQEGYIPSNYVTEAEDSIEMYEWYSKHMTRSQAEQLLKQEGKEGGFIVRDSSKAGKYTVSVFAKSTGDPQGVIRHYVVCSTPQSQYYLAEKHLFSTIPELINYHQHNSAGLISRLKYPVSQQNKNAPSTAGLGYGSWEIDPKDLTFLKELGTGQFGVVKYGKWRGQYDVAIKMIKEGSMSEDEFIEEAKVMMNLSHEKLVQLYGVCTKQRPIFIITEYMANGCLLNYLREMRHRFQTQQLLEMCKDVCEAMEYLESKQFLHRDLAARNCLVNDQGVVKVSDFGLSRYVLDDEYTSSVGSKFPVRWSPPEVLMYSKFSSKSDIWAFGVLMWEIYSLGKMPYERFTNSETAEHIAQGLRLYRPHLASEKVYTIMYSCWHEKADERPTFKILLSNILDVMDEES
Chain of Kit (P10721 26-976, species assumed): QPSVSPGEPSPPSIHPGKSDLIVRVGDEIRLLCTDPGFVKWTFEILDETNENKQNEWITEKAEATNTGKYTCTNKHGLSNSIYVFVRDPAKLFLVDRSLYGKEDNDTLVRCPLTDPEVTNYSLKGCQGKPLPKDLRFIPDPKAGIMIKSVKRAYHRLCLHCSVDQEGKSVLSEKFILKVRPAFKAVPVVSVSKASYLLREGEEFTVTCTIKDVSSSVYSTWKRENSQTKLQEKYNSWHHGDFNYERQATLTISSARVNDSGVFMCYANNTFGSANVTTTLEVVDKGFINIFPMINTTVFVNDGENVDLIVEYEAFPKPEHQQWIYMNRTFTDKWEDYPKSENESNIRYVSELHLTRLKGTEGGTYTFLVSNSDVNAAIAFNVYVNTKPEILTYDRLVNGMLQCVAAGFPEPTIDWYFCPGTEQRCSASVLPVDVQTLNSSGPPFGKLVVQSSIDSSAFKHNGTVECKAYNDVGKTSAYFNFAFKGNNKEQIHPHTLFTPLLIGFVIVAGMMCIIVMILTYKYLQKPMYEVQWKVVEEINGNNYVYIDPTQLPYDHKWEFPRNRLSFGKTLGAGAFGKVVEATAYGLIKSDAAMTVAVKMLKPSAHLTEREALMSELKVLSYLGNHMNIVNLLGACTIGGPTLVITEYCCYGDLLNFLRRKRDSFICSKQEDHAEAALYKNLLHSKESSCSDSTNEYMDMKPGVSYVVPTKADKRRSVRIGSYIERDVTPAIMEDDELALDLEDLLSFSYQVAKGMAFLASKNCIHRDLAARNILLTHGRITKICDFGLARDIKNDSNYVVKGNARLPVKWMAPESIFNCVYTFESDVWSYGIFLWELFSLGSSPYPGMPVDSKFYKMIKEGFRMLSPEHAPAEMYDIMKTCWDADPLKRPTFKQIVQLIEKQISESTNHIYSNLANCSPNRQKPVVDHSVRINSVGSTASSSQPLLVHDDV
Chain of Kdr (P35968 20-1356, species assumed): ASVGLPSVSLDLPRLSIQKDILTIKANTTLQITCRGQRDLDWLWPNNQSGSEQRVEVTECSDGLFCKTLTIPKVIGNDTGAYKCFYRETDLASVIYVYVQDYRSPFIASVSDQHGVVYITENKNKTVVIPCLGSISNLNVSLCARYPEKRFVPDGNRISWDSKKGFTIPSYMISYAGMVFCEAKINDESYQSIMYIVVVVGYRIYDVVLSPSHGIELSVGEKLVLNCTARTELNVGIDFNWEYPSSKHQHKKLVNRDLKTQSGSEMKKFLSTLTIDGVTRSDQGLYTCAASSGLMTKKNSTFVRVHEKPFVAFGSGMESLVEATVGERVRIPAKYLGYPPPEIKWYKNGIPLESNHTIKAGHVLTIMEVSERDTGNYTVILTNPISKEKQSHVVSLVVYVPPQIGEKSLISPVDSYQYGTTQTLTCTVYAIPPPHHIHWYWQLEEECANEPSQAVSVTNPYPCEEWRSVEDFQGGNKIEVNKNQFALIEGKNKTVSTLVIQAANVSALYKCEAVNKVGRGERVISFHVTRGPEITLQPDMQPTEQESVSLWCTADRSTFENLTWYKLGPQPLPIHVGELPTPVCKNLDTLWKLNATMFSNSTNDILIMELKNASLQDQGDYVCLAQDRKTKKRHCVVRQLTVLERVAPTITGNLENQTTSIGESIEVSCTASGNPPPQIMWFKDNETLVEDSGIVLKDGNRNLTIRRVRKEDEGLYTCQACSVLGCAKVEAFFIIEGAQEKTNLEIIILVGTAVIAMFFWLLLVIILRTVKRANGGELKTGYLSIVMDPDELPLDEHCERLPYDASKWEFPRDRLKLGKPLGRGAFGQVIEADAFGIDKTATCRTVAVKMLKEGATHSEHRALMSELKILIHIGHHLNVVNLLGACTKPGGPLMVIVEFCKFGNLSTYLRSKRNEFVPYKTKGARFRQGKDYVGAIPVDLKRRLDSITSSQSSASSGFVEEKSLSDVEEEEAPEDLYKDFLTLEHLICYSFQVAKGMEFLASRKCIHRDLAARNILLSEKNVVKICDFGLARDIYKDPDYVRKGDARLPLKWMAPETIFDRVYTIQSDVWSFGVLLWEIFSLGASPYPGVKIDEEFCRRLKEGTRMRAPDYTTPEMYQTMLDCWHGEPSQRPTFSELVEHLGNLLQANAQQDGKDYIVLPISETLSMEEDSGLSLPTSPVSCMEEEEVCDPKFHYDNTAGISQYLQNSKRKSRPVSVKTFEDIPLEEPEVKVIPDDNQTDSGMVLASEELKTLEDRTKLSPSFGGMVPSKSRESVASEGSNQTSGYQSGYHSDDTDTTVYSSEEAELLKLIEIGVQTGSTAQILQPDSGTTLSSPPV
T1 sequence (P15056 whole entry): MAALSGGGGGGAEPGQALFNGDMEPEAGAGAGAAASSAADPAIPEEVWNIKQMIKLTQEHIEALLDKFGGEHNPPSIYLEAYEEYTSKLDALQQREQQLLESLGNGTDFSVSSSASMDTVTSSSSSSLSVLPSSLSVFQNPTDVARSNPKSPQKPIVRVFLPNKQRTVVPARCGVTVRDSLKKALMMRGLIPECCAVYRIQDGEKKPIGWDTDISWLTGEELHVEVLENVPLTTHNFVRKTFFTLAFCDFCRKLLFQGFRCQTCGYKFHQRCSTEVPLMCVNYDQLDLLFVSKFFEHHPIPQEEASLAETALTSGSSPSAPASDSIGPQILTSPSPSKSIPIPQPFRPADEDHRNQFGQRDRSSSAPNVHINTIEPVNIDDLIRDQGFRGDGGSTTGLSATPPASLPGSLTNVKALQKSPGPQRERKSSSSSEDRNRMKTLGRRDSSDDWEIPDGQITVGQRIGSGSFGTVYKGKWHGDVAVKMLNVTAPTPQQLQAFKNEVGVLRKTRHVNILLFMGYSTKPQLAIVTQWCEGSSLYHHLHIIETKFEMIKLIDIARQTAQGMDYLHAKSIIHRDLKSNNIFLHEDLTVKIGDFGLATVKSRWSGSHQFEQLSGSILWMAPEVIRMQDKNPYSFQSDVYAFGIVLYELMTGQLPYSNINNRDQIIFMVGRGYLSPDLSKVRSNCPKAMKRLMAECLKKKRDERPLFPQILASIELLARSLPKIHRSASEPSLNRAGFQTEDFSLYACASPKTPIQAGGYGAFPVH
Chain of Fms (P07333 20-972, species assumed): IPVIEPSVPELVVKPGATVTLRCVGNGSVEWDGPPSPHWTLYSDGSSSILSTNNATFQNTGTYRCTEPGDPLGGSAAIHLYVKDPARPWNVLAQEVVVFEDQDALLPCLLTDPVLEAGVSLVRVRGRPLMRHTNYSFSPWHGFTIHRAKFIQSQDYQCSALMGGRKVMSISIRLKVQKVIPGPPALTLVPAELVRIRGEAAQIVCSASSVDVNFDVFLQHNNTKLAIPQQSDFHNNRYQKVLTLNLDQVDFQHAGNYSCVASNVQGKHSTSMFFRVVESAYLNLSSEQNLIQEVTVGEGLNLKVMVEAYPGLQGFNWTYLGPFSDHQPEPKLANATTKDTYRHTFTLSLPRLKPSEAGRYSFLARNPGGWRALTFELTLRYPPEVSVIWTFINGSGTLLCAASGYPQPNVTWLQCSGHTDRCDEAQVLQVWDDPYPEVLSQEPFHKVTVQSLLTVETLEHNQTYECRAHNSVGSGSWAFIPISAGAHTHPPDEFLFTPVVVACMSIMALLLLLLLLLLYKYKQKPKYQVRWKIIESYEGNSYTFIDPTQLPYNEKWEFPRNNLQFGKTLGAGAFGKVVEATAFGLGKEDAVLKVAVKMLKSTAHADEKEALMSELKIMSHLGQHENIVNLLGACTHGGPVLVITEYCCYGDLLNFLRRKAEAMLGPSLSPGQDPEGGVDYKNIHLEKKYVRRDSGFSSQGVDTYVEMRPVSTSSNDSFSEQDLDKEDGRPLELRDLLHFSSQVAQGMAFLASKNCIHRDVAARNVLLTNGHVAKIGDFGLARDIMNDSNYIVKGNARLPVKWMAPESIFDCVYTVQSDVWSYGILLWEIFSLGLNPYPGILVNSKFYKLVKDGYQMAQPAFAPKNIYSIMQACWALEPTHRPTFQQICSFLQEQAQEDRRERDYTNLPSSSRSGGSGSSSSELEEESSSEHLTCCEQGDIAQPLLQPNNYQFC

Kinase having IC50 of >1 μM (Kit)	Kinase having IC50 of >1 μM (Kdr)	IC50 (B-Raf)	IC50 (SW620 cells)	IC50 (COLO205 cells)	IC50 (CYP3A4(BQ))	Kinase having IC50 of >1 μM (Btk)	Kinase having IC50 of >1 μM (Fms)	Kinase having IC50 of <1 μM (Kit; [2])	Kinase having IC50 of <1 μM (Kdr; [2])	SMILES	turbidity threshold (L, M, H) 1.4 [1]
Kit	Kdr	< 0.01 µM	> 20 µM	< 1 µM	5 to 10 µM	Btk	Fms	–	–	N#Cc1cnc2[nH]cc(C(=O)c3c(F)ccc(NS(=O)(=O)c4cccc(F)c4)c3F)c2c1 [Compound P-0005, N-[3-(5-cyano-1H-pyrrolo[2,3-b]pyridine-3-carbonyl)-2,4-difluoro-phenyl]-3-fluoro-benzenesulfonamide]	M (moderate solubility if the threshold concentration is 31.3 μM to 250 μM)
Kit	Kdr	< 0.1 µM	–	< 1 µM	> 10 µM	Btk	Fms	–	–	N#Cc1cnc2[nH]cc(C(=O)c3c(F)ccc(NS(=O)(=O)N4CCCC4)c3F)c2c1 [Compound P-0006, pyrrolidine-1-sulfonic acid [3-(5-cyano-1H-pyrrolo[2,3-b]pyridine-3-carbonyl)-2,4-difluoro-phenyl]-amide]	M (moderate solubility if the threshold concentration is 31.3 μM to 250 μM)
–	–	< 0.1 µM	> 20 µM	< 1 µM	5 to 10 µM	Btk	Fms	Kit	Kdr	N#Cc1cnc2[nH]cc(C(=O)c3c(F)ccc(NS(=O)(=O)c4cc(F)ccc4F)c3F)c2c1 [Compound P-0004, N-[3-(5-cyano-1H-pyrrolo[2,3-b]pyridine-3-carbonyl)-2,4-difluoro-phenyl]-2,5-difluoro-benzenesulfonamide]	M (moderate solubility if the threshold concentration is 31.3 μM to 250 μM)
Kit	Kdr	< 1 µM	> 20 µM	< 2 µM	> 10 µM	Btk	Fms	–	–	CCCS(=O)(=O)Nc1cccc(C(=O)c2c[nH]c3ncc(C#N)cc23)c1F [Compound P-0003, propane-1-sulfonic acid [3-(5-cyano-1H-pyrrolo[2,3-b]pyridine-3-carbonyl)-2-fluoro-phenyl]-amide]	M (moderate solubility if the threshold concentration is 31.3 μM to 250 μM)
Kit	Kdr	< 0.1 µM	> 20 µM	< 1 µM	> 10 µM	Btk	Fms	–	–	CCCS(=O)(=O)Nc1ccc(F)c(C(=O)c2c[nH]c3ncc(C#N)cc23)c1F [Compound P-0002, propane-1-sulfonic acid [3-(5-cyano-1H-pyrrolo[2,3-b]pyridine-3-carbonyl)-2,4-difluoro-phenyl]-amide]	M (moderate solubility if the threshold concentration is 31.3 μM to 250 μM)
Kit	Kdr	< 1 µM	> 20 µM	< 3 µM	< 5 µM	Btk	Fms	–	–	CN(C)S(=O)(=O)Nc1ccc(F)c(C(=O)c2c[nH]c3ncc(C#N)cc23)c1F [Compound P-0007, N,N-dimethylamino-sulfonic acid [3-(5-cyano-1H-pyrrolo[2,3-b]pyridine-3-carbonyl)-2,4-difluoro-phenyl]-amide]	M (moderate solubility if the threshold concentration is 31.3 μM to 250 μM)
Kit	Kdr	< 0.1 µM	> 20 µM	< 1 µM	> 10 µM	Btk	Fms	–	–	CCCS(=O)(=O)Nc1ccc(F)c(C(=O)c2c[nH]c3ncc(-c4cnc(OC)nc4)cc23)c1F [Compound P-0001, propane-1-sulfonic acid {2,4-difluoro-3-[5-(2-methoxy-pyrimidin-5-yl)-1H-pyrrolo[2,3-b]pyridine-3-carbonyl]-phenyl}-amide]	M (moderate solubility if the threshold concentration is 31.3 μM to 250 μM)
